# Measured values as given in patent US20110076331A1, “Use of Deuterium Oxide as an Elastase Inhibitor” (priority 2008, published 2011).
# Key:
# [1] = tested on: patients with leukocytoclastic skin vasculitis; assay: Half-side gel experiment in leukocytoclastic skin vasculitis; format: in vivo, human; conditions: D2O-containing gel on lower leg three times a day, 4 days; vs H2O gel
# Experimental: Leukocytoclastic skin vasculitis is characterized by recurring behavior. A special feature of this dermatosis is destruction of cutaneous capillaries by an inflammatory process in which neutrophil granulocytes participate almost exclusively. To check the effect of D2O-containing gel on the extent of cutaneous lesions patients with leukocytoclastic skin vasculitis were treated in a half-side experiment. Either an H2O- or D2O-containing gel were applied in randomized fashion on the right or left lower leg three times a day. After a treatment time of 4 days the treatments was compared by means of a clinical score that evaluates the number and expression of vasculitis lesions.
# brown Norwegian rats = assay: Animal model of allergic bronchial asthma (ovalbumin); format: in vivo, rat; conditions: aerosol of isotonic D2O solution for 6 days before ovalbumin aerosol; after 24 hours
# Experimental: The effect of D2O in allergic asthma was presented in an animal model of 10-week-old brown Norwegian rats (Roumestan et al., Resp Res 8:35-46, 2007). Sensitization of the animals occurred by repeated intraperitoneal injection of ovalbumin. The animals were then introduced to a climatized cage and constantly treated with an aerosol of isotonic H2O or D2O solution for 6 days. Asthma triggering by an ovalbumin-containing aerosol then occurred. The change in airway resistance was then determined as parameter by barometric plethysmography on the living animals after 24 hours. A significant intensification of airway resistance was found in the H2O-treated group.
# [2] = tested on: elastase activity in the blister fluid; assay: Ex vivo bullous pemphigoid blister fluid: degradation of recombinant BP180 antigen; format: biochemical, human; conditions: added to blister fluid; autoradiography after gel electrophoresis; vs untreated control
# Experimental: The blister fluid in patients with bullous pemphigoid was sampled in an ex vivo model (Verraes et al., 2001). Recombinant radioactively-labeled BP180 antigen, the target antigen in this disease, was then added to the blister fluid and decay determined autoradiographically after gel electrophoresis. For inhibition of elastase activity in the blister fluid either D2O or the elastase inhibitor chloromethyl ketone was added to it. An untreated control served as comparison. Both with chloromethyl ketone and with D2O the degradation of the recombinant BP180 antigen could be inhibited, whereas the protein was almost completely degraded by the untreated blister fluid.
# [3] = tested on: patients with psoriasis vulgaris; assay: Half-side hydrogel experiment in psoriasis vulgaris; format: in vivo, human; conditions: 2 wt % Carbopol 980 gel with 1 wt % urea, twice a day, after 4 weeks; vs H2O gel
# Experimental: A half-side experiment was conducted by means of hydrogel to determine the effect of D2O in psoriasis vulgaris. The gel was a 2 wt % Carbopol 980 with 1 wt % urea. The pH value of the gel was set at 6.5 with NaOH solution. […] The local psoriasis severity index (LPSI) was used for evaluation (Henneicke-von Zepelin, H. H., Mrowietz, U., Färber, L., Bruck-Borchers, K., Schober, C., Huber, J., Lutz, G., Kohnen, R., Christophers, E., Welzel, D., Highly purified omega-3-polyunsaturated fatty acids for topical treatment of psoriasis. Results of a double-blind, placebo-controlled multicenter study. Br J Dermatol. 1993; 129:713-7). The patients were relied on to apply the content of tubes marked “right” and “left” twice a day on the corresponding lesions on the right or left elbow. A gel produced with D2O was found in one tube, the gel in the other tube was prepared with H2O. Division occurred randomly. LPSI was determined once a week.
# Wistar rats = assay: Animal model of infectious peritonitis (S. aureus ATCC 25923), peritoneal lavage; format: in vivo, rat; conditions: peritoneal lavage 4 hours after S. aureus, vs isotonic saline
# Experimental: Male Wistar rats received a catheter for peritoneal dialysis and for induction of peritonitis and for further peritoneal dialysis. A purulent peritonitis was produced by introduction of a suspension of S. aureus ATCC 25923 (1×10^9 c.f.u. in 0.5 mL). After 4 hours peritoneal lavage was carried out either with isotonic saline or with isotonic […]. After the death of the animals, but at the latest after 24 hours, bacterial infestation and the inflammatory reaction in the peritoneum were investigated histologically.
# Syrian Gold hamsters = assay: D2O aerosols in an animal model of COPD (HNE-induced hemorrhage); format: in vivo, hamster
# Experimental: The employed H2O was distilled and ion-exchanged. Both D2O and H2O were sterile. A Pari LC Plus universal atomizer (PARI GmbH, Starnberg, Germany) was used for aerosolization combined with a Pari universal compressor, which generated 200 mg/min polydispersed aerosol with an average particle size (median diameter) of 2.5 μm for pure H2O and pure D2O and 2.5-4.5 μm for H2O and D2O with additional non-pharmaceutical and/or pharmaceutical agents (operating pressure 2.0 bar, flow rate of the compressor air was 6.0 L/min). The particle size measurement occurred with dynamic light scattering in a flow cell. Aerosol generation occurred at a temperature of 37° C. by corresponding thermostating of the atomizer in a water bath thermostat.
# Male Syrian Gold hamsters (average weight 105 g±8 g) were divided into two groups (experimental group and control group) of six hamsters each. The animals of both groups were anesthetized intraperitoneally (ketamine 95 mg/kg and xylazine 17 mg/kg) and then intubated endotracheally by direct laryngoscopy. Both groups received 100 μL of human neutrophil elastase (500 μg/mL in sterile 0.9% NaCl solution) instilled. […] For BAL 2.5 mL 0.9% NaCl solution was repeatedly instilled (total of three times) and the hemoglobin concentration then determined in the instillate speetrophotometrically. […] For the experimental group an average hemoglobin value of 120±20 mOD was measured. […]
# Long-Evans rats = assay: Cerebral ischemia/reperfusion animal model; format: in vivo, rat; conditions: D2O in isotonic saline infused 15 minutes before ischemia and right before reperfusion; vs H2O
# Experimental: The effect of D2O on cerebral ischemia was investigated in an animal model. For this purpose cerebral ischemia was produced for 1 hour in adult Long-Evans rats by closure of both carotid arteries, which followed reperfusion over 24 hours. Final observation with evaluation of neurovegetative symptoms occurred (spontaneous activity, coordinated walking, stretching of the front paw and climbing). Damage to the brain tissue was then investigated histologically. In two experimental groups of three rats each, either D2O (experimental group) or H2O (control group) in isotonic saline was infused in the animals 15 minutes before initiation of ischemia and right before subsequent reperfusion.
structure (smiles),measurement,setting,value
"[2H]O[2H] [D2O, deuterium oxide]",clinical score (number and expression of vasculitis lesions),[1],distinct reduction of the clinical score
same,change in airway resistance (barometric plethysmography),brown Norwegian rats,only a slight increase in airway resistance
same,degradation of the recombinant BP180 antigen,[2],inhibited
same,local psoriasis severity index (LPSI),[3],significant reduction of LPSI
same,inflammatory activity in the peritoneum,Wistar rats; histology,lower inflammatory activity
same,number of bacteria in the quantitative culture,Wistar rats,reduced number of bacteria
same,inhibition of acute lung damage caused by elastase (hemorrhage),"Syrian Gold hamsters; D2O aerosol 24 hours, from reduction in hemoglobin concentration vs H2O aerosol control group",60%
same,average hemoglobin value in BAL,Syrian Gold hamsters; continuous D2O aerosol in respiration air for 24 hours after HNE instillation,120±20 mOD
same,"reperfusion damage (granulocytes in histological sections, neurological behavior)",Long-Evans rats,significant effect on the reduction in reperfusion damage
